The values below come from BindingDB's records for doi:10.1111/j.2042-7158.1986.tb04590.x (1986).

The assay has as its target Sigma non-opioid intracellular receptor 1 (Cavia porcellus, UniProt Q60492).

Chain of Sigma non-opioid intracellular receptor 1 (Q60492 whole entry): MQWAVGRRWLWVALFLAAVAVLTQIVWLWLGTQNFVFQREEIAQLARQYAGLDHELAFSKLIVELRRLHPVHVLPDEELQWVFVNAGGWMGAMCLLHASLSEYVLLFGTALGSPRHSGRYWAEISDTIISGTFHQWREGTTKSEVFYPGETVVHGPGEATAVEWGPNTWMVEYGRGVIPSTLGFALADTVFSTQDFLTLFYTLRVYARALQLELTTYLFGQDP

The Ki is a dissociation constant, usually derived from enzyme kinetics or from competition with a known ligand. In turn, `CN(C)CCCN1c2ccccc2CCc2ccccc21` returned a Ki of 520 nM.

`CN(C)CCC=C1c2ccccc2CCc2ccccc21` gave a Ki of 300 nM.

In turn, `Clc1cccc(Cl)c1N=C1NCCN1` [2-(2,6-dichloroanilino)-2-imidazoline] displayed a Ki above 10000 nM.

In turn, `CNCCC=C1c2ccccc2CCc2ccccc21` [NORTRIPTYLINE] had a Ki of 2000 nM.

On to `CN(C)CCCN1c2ccccc2Sc2ccc(C(F)(F)F)cc21` [TRIFLUPROMAZINE], for which the affinity, expressed as Ki, was 605 nM.

The compound `CN(C)CCCN1c2ccccc2Sc2ccc(Cl)cc21` [[3-(2-Chloro-phenothiazin-10-yl)-propyl]-dimethyl-amine(Chlorpromazine)] showed an inhibition constant Ki of 1470 nM.
